Biological target: IDO1 (Homo sapiens (Human), UniProt P14902)
Test: IDO1 In Vivo Assay (hIDO1-CT26 murine model)
Parameters: species or system mouse
Conditions: oral administration, 100 and 300 mg/kg
Description: hIDO1-CT26, a murine cell line generated in house to constitutively express the human IDO1 protein, was cultured in RPMI-1640+10% FBS+500 μM L-tryptophan in a standard cell incubator (37° C., 5% CO2). At 80% confluency, cells are rinsed in TrypLE, then incubated with TrypLE until fully detached (usually 1-5 min), resuspended in complete media, spun down (1000 rpm, 4° C., 5 min), and resuspended in phenol red-free RPMI-1640 before counting.
Two millions hIDO1-CT26 cells (20×10E6 cells/ml) in 50% phenol red-free RPMI-1640/50% Matrigel (growth factor reduced, GFR) are implanted subcutaneously in the right flank of anesthetized immunocompromised animals (CD-1 Nu/Nu, Charles River Labs). Ten days following implantation, tumors reach an average volume of 180 mm^3 at which point animals are randomized into treatment groups.
Animals are treated with IDO1 inhibitors by oral gavage (PO) every 12 h (BID dosing). Based on experimental design, animals will receive a minimum of 1 dose. At various times following the last dose, animals will be euthanized (CO2 asphyxiation), blood will be collected via cardiac puncture for plasma, and tumors will be resected. For plasma preparation, whole blood is transferred to plasma tube, and stored on ice prior to centrifugation. […]

Sequence of IDO1 (P14902 whole entry): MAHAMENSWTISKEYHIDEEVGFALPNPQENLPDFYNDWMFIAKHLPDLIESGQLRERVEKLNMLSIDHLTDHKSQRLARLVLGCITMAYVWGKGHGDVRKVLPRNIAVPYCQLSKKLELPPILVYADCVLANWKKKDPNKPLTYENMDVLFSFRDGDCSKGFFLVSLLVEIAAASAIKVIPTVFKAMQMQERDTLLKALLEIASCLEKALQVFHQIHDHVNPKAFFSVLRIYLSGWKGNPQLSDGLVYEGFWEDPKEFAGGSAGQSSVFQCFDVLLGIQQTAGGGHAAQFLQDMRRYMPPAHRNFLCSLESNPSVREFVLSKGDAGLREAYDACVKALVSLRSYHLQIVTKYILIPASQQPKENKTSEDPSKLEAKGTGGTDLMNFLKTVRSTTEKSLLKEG

Row | Compound | kynurenine levels in both plasma and tumor
1 | O=C(CSc1nonc1/C(=N/O)Nc1ccc(F)c(Br)c1)NC[C@@H](O)CO [Example 42, (R)-2-((4-(N-(3-bromo-4-fluorophenyl)-N′-hydroxycarbamimidoyl)-1,2,5-oxadiazol-3-yl)thio)-N-(2,3-dihydroxypropyl)acetamide] | dose-dependent reduction
2 | NC(=O)NCCSc1nonc1/C(=N/O)Nc1ccc(F)c(Br)c1 [Example 46, N-(3-Bromo-4-fluorophenyl)-N′-hydroxy-4-((2-ureidoethyl)thio)-1,2,5-oxadiazole-3-carboximidamide] | dose-dependent reduction
